Drawing on BindingDB's records for doi:10.1016/j.bmcl.2006.01.011 (Purdue University, 2006), this text covers Ki for seven molecules.

The target of this test is T1, Dimer of Gag-Pol polyprotein [501-599,Q508K,L534I,L564I,C568A,C596A] (Human immunodeficiency virus 1, UniProt P03367, C568A/C596A/L534I/L564I/Q508K).
T1 construct: 501-599
Kind of test: Protease Inhibition Assay. Particulars: pH 6.4; 25 °C. The protocol: The Ki values were determined using fluorogenic substrate, 2-(aminobenzoyl)-Thr-Ile-Nle-Phe(p-NO2)-Gln-ArgNH2. A standard curve relating changes in fluorescent intensity to changes in concentration of product was used to convert fluorescent changes into molar velocities. The amount of cleavage was determined by HPLC.

For `O=C(N[C@@H](Cc1ccccc1)[C@H](O)CN1CC=CCCC12C(=O)Nc1ccccc12)O[C@H]1CO[C@H]2OCC[C@H]21` (stereo partly drawn) [(3R,3aS,6aR)-hexahydrofuro[2,3-b]furan-3-yl N-[(2S,3R)-4-{1',2',1,3,4,7-hexahydrospiro[azepine-2,3'-indole]-2'-one}-3-hydroxy-1-phenylbutan-2-yl]carbamate], the inhibitory constant (Ki) (as a rule, a measure of affinity in units of concentration, obtained from inhibition or displacement) was > 1000 nM.

For the molecule `CC(C)CN(C[C@@H](O)[C@H](Cc1ccccc1)NC(=O)O[C@H]1CO[C@H]2OCC[C@H]21)C1(C)C(=O)Nc2ccccc21` (stereo partly drawn) [(3R,3aS,6aR)-hexahydrofuro[2,3-b]furan-3-yl N-[(2S,3R)-3-hydroxy-4-[(3-methyl-2-oxo-2,3-dihydro-1H-indol-3-yl)(2-methylpropyl)amino]-1-phenylbutan-2-yl]carbamate], the Ki amounted to 4.5 nM.

With `O=C(N[C@@H](Cc1ccccc1)[C@H](O)CN1CCCCCC12C(=O)Nc1ccccc12)O[C@H]1CO[C@H]2OCC[C@H]21` (stereo partly drawn) [(3R,3aS,6aR)-hexahydrofuro[2,3-b]furan-3-yl N-[(2S,3R)-4-{1',2'-dihydrospiro[azepane-2,3'-indole]-2'-one}-3-hydroxy-1-phenylbutan-2-yl]carbamate], the Ki is > 1000 nM. `C=CCC1(N(CC(C)C)C[C@@H](O)[C@H](Cc2ccccc2)NC(=O)O[C@H]2CO[C@H]3OCC[C@H]32)C(=O)Nc2ccccc21` (stereo partly drawn) [(3R,3aS,6aR)-hexahydrofuro[2,3-b]furan-3-yl N-[(2S,3R)-3-hydroxy-4-[(2-methylpropyl)[2-oxo-3-(prop-2-en-1-yl)-2,3-dihydro-1H-indol-3-yl]amino]-1-phenylbutan-2-yl]carbamate]: the affinity, expressed as Ki, was 4.5 nM.

For `O=C(N[C@@H](Cc1ccccc1)[C@H](O)CN1CCCCC12C(=O)Nc1ccccc12)O[C@H]1CO[C@H]2OCC[C@H]21` (stereo partly drawn) [(3R,3aS,6aR)-hexahydrofuro[2,3-b]furan-3-yl N-[(2S,3R)-4-{1,2-dihydrospiro[indole-3,2'-piperidine]-2-one}-3-hydroxy-1-phenylbutan-2-yl]carbamate], the Ki was > 1000 nM. As for `CC(C)CN(C[C@@H](O)[C@H](Cc1ccccc1)NC(=O)O[C@H]1CO[C@H]2OCC[C@H]21)C1(C)C(=O)N(C)c2ccccc21` (stereo partly drawn) [(3R,3aS,6aR)-hexahydrofuro[2,3-b]furan-3-yl N-[(2S,3R)-4-[(1,3-dimethyl-2-oxo-2,3-dihydro-1H-indol-3-yl)(2-methylpropyl)amino]-3-hydroxy-1-phenylbutan-2-yl]carbamate], the figure is 51 nM; as for `COc1ccc2c(c1)C(C)(N(CC(C)C)C[C@@H](O)[C@H](Cc1ccccc1)NC(=O)O[C@H]1CO[C@H]3OCC[C@H]31)C(=O)N2` (stereo partly drawn) [(3R,3aS,6aR)-hexahydrofuro[2,3-b]furan-3-yl N-[(2S,3R)-3-hydroxy-4-[(5-methoxy-3-methyl-2-oxo-2,3-dihydro-1H-indol-3-yl)(2-methylpropyl)amino]-1-phenylbutan-2-yl]carbamate], 116 nM.
